Source: patent US20090239917A1, “Heterocyclic Cycloalkyl Compounds, a Process for their Preparation and Pharmaceutical Compositions Containing Them” (Les Laboratoires Servier, priority 2006, published 2009)

Tested on: ob/ob mouse
Assay: Antidiabetic and hypolipaemic effect in the ob/ob mouse
Format: in vivo
Excerpt: Mutations in laboratory animals and also different sensitivities to dietary regimens have allowed the development of animal models having non-insulin-dependent diabetes and hyperlipidaemia associated with obesity and with resistance to insulin. Genetic mice models (ob/ob) (Diabetes, 1982, 31 (1), 1-6) and Zucker (fa/fa) rats have been developed by various laboratories in order to understand the physiopathology of those diseases and test the effectiveness of new antidiabetic compounds (Diabetes, 1983, 32, 830-838).
The 10-week-old male ob/ob mouse (Harlan) is used for the in vivo tests. The animals are kept in a light-darkness cycle of 12 hours at 25° C. This mouse has a basal hyperglycaemia of 2 g/l. The animals are randomly selected with regard to their glycaemia to form groups of eight. […] The control group receives the solvents under the same conditions as the treated groups. The activity of the products is evaluated by measuring glycaemia, insulinaemia and triglyceridaemia 24 hours after the final administration and by measuring body weight daily.

[1] = 3 mg/kg oral, once per day for four days, 24 hours after final administration

Row | Structure (SMILES) | reduction of glycaemia vs control mice [1] [%] | reduction of insulinaemia vs control mice [1] [%] | reduction of triglyceridaemia vs control mice [1] [%] | reduction in glycaemia (1 mg/kg) [%] | reduction in insulinaemia (1 mg/kg) [%] | reduction in the weight gain observed in the ob/ob control mice (1 mg/kg) [%] | reduction in triglyceridaemia (1 mg/kg) [%]
1 | O=C(c1ccc2c(c1)sc(=O)n2CCOc1ccc(CC(OCC(F)(F)F)C(=O)O)cc1)C1CC1 (stereo not shown) [Example 2, 3-{4-[2-(6-(Cyclopropylcarbonyl)-2-oxo-1,3-benzothiazol-3(2H)-yl)-ethoxy]phenyl}-2-(2,2,2-trifluoroethoxy)propanoic acid] | 42 | 71 | 45 |  |  |  | 
2 | O=C(c1ccc2c(c1)sc(=O)n2CCOc1ccc(C[C@H](OCC(F)(F)F)C(=O)[O-])cc1)C1CC1.[Na+] [Example 9, Sodium (S)-3-{4-[2-(6-(cyclopropylcarbonyl)-2-oxo-1,3-benzothiazol-3(2H)-yl)ethoxy]phenyl}-2-(2,2,2-trifluoroethoxy)propanoate] |  |  |  | 39 | 41 | 14 | 52
